# Test results: patent publication US20260144259A1, “CRYSTAL OF 2-(5-CYCLOPROPYL-3-(ETHYLSULFONYL)PYRIDIN-2-YL)-5-((TRIFLUOROMETHYL)SULFINYL)BENZO[D]OXAZOLE” (SUMITOMO CHEMICAL COMPANY, LIMITED, priority 2022, published 2026)
# Experiments:
# Format in all cases: in vivo
# [1] = tested on: cotton aphids (Aphis gossypii); experiment: Test method 1: spray on cucumber seedling infested with cotton aphids; conditions: 500 ppm; sprayed 10 mL/seedling on cucumber one day after release of about 30 aphids (all stages); after 5 days; 25° C.
# Method: Next, an efficacy of the Type 1 crystal of Compound (1) on controlling harmful arthropods is shown by Test examples. The following tests were conducted at 25° C. Test compound is made to a formulation according to a similar method to that described in the Formulation example 1, and thereto is added water containing 0.03 v/v % of Shindain (registered trademark) to prepare a dilution containing a prescribed concentration of the test compound. Cucumber (Cucumis sativus) seedling (on the developmental stage of the second true leaf) is planted in a cup, and approximately 30 cotton aphids (Aphis gossypii) (all stages of life) are released onto the seedling. After one day, the dilutions are sprayed onto the seedling at a ratio of 10 mL/seedling. After 5 days, the number of the surviving insects is examined and the controlling value is calculated by the following equation. […]
# [2] = tested on: common cutworms (Spodoptera litura); experiment: Test method 2: sprayed cabbage leaves fed to common cutworms; conditions: 120 h, cabbage sprayed 20 mL/seedling, second instar larvae, after 5 days, 25° C., read-out: mortality of insects
# Method: (§1) Next, an efficacy of the Type 1 crystal of Compound (1) on controlling harmful arthropods is shown by Test examples. The following tests were conducted at 25° C.
# (§2) Test compound is made to a formulation according to a similar method to that described in the Formulation example 1, and thereto is added water containing 0.03 v/v % of Shindain (registered trademark) to prepare a dilution containing a prescribed concentration of the test compound.
# (§3) Cabbage (Brassicae oleracea) seedling (on the developmental stage of the second to third true leaf) is planted in a cup, and the dilutions are sprayed onto the seedling at a ratio of 20 mL/seedling. Thereafter, the stem and leaf thereof are cut out and then are placed into a cup that is lined with a filter paper. Five (5) common cutworms (Spodoptera litura) at the second instar larval stage are released into the cup. After 5 days, the number of the surviving insects is counted, and the mortality of insects is calculated by the following equation.
# [3] = tested on: diamondback moths (Plutella xylostella); experiment: Test method 3: sprayed cabbage leaves fed to diamondback moths; conditions: 120 h, cabbage sprayed 20 mL/seedling, second instar larvae, after 5 days, 25° C., read-out: mortality of insects
# Method: as §1, §2
# as §3, with “diamondback moths (Plutella xylostella)” for “common cutworms (Spodoptera litura)”
# [4] = tested on: common house mosquitos (Culex pipiens pallens); experiment: Test method 4: common house mosquito larvae released into dilution; conditions: 24 h, last instar larvae released into dilution, after 1 day, 25° C., read-out: mortality of insects
# Method: as §1
# Test compound is made to a formulation according to a similar method to that described in the Formulation example 1, and thereto is added water to prepare a dilution containing a prescribed concentration of the test compound.
# Into the dilution, 30 common house mosquitos (Culex pipiens pallens) at the last instar larval stage are released, and after 1 day, the state of the common house mosquito larvae is examined, and the mortality of insects is calculated by the following equation.
# [5] = tested on: brown planthoppers (Nilaparvata lugens); experiment: Test method 5: sprayed rice seedling with brown planthoppers; conditions: 144 h, rice sprayed 10 mL/seedling, third instar larvae, after 6 days, 25° C., read-out: mortality of insects
# Method: as §1, §2
# Rice (Oryza sativa) seedling (on the developmental stage of the second leaf) is planted in a cup, and the dilutions are sprayed onto the seedling at a ratio of 10 mL/seedling. Thereafter, twenty (20) brown planthoppers (Nilaparvata lugens) at the third instar larval stage are released into the cup. After 6 days, the number of the surviving insects is counted, and the mortality of insects is calculated by the following equation.
# [6] = tested on: cotton aphids (Aphis gossypii); experiment: Test method 6: sprayed cucumber seedling, artificial rainfall, then cotton aphids released; conditions: 0.5 ppm; cucumber sprayed 10 mL/seedling, dried, artificial rain 10 mm/hr for 1 hour; female adults released after one day; after 5 days; 25° C.
# Method: Next, an efficacy of the Type 1 crystal of Compound (1) on controlling harmful arthropods is shown by Test examples. The following tests were conducted at 25° C. Test compound is made to a formulation according to a similar method to that described in the Formulation example 1, and thereto is added water containing 0.02 v/v % of Shindain (registered trademark) to prepare a dilution containing a prescribed concentration of the test compound. Only the second true leaves of Cucumber (Cucumis sativus) seedling (on the developmental stage of the third true leaf) are retained, and the other leaves are cut off, and the dilutions are sprayed onto the seedling at a ratio of 10 mL/seedling. After the dilution, which is treated, is dried, rain is given to the cucumber seedling with an artificial rainfall device at 10 mm/hr for 1 hour. After one day, 10 cotton aphids (Aphis gossypii) female adults are released onto the seedling. After 5 days, the number of the surviving insects is examined and the controlling value is calculated by the following equation. […]
# [7] = tested on: Argentine ant (Linepithema humile); experiment: Test method 7: sugar-water filter paper test on Argentine ant workers; conditions: 0.2 ppm, 0.7 ml dilution in sugar water on filter paper, after 6 days, 25° C.
# Method: as §1
# (§4) Test compound is made to a formulation according to a similar method to that described in the Formulation example 1, and thereto is added 1.8 g of sucrose, followed by adding 3% sugar water to prepare a dilution containing a prescribed concentration of the test compound.
# (§5) A filter paper having a diameter of 5.5 cm is spread on the bottom of the cup, and then 0.7 ml of the dilutions are added dropwise to the filter paper, and ten (10) Argentine ant (Linepithema humile) workers are released into the cup, and the cup is covered with the lid. After 6 days, the number of the dead and distressed individuals of Argentine ant workers are counted, and the ratio of distressed and dead insects (%) is calculated by the following equation.
# (§6) Here the dead individual is one whose behavior has completely stopped, and a distressed individual is one that cannot stand up when placed on its back and also cannot walk.
# [8] = tested on: pharaoh ant (Monomorium pharaonis); experiment: Test method 8: sugar-water filter paper test on pharaoh ant workers; conditions: 0.05 ppm, 0.7 ml dilution in sugar water on filter paper, after 2 days, 25° C.
# Method: as §1, §4
# as §5, with “pharaoh” for “Argentine”, “(Monomorium pharaonis)” for “(Linepithema humile)”, “2” for “6”
# as §6
# [9] = tested on: German cockroach (Blattella germanica); experiment: Test method 9: sugar-water filter paper test on German cockroach male adults; conditions: 0.2 ppm, 0.7 ml dilution in sugar water on filter paper, after 5 days, 25° C.
# Method: as §1, §4
# as §5, with “five (5) German cockroach (Blattella germanica) male adults” for “and ten (10) Argentine ant (Linepithema humile) workers”, “5” for “6”, “German cockroach male adults” for “Argentine ant workers”
# as §6
# [10] = tested on: common house mosquito (Culex pipiens pallens); experiment: Test method 10: sugar-water filter paper test on common house mosquito female adults; conditions: 0.8 ppm, 0.7 ml dilution in sugar water on filter paper, after 2 days, 25° C.
# Method: as §1, §4
# as §5, with “five (5) common house mosquito (Culex pipiens pallens) female adults” for “and ten (10) Argentine ant (Linepithema humile) workers”, “2” for “6”, “[…] female adults” for “Argentine ant workers”
# Here the dead individual is one whose behavior has completely stopped, and a distressed individual is one that cannot fly and also cannot walk.
SMILES,controlling value [1] [%],mortality at 500 ppm [2] [%],mortality at 500 ppm [3] [%],mortality at 3.5 ppm [4] [%],mortality at 500 ppm [5] [%],controlling value [6] [%],ratio of distressed and dead insects [7] [%],ratio of distressed and dead insects [8] [%],ratio of distressed and dead insects [9] [%],ratio of distressed and dead insects [10] [%]
"CCS(=O)(=O)c1cc(C2CC2)cnc1-c1nc2cc([S+]([O-])C(F)(F)F)ccc2o1 (stereo not drawn) [Type 1 crystal of Compound (1), 2-(5-cyclopropyl-3-(ethylsulfonyl)pyridin-2-yl)-5-((trifluoromethyl)sulfinyl)benzo[d]oxazole]",≥ 90,≥ 80,≥ 80,≥ 90,≥ 90,55.7,95,100,100,100
"CCS(=O)(=O)c1cc(C2CC2)cnc1-c1nc2cc([S+]([O-])C(F)(F)F)ccc2o1 (stereo not drawn) [amorphous of Compound (1), 2-(5-cyclopropyl-3-(ethylsulfonyl)pyridin-2-yl)-5-((trifluoromethyl)sulfinyl)benzo[d]oxazole]",–,–,–,–,–,32.4,30,15,0,20
